The results in this text go back to US20220170930A1, “METHOD FOR SCREENING COMPOUND FOR TREATING OR PREVENTING POLYQ-RELATED NEURODEGENERATIVE DISEASES” (FUDAN UNIVERSITY, priority 2019, published 2022).

The target of assay [1] is T1, mutant ATXN1 protein (His-ATXN1-Q92) (Homo sapiens, UniProt P54253, INS208QQQQQQQQQQQQQQQQQQQQQQQQQQQQQQQQQQQQQQQQQQQQQQQQQQQQQQQQQQQQQQQQQQQQQQQQQQQQQQQQ).
T1 construct: expressed in transfected cells; host or cells: HEK293T cells (ATCC, CRL-3216)
The experiment in a line: HTRF mutant ATXN1 level in His-ATXN1-Q92-expressing cells. The class given is cell-based. The conditions noted are these: 100 nM, 2 days, anti-His-Tb/MW1-D2. (Time-resolved FRET reads energy transfer from a long-lived donor to a nearby acceptor.)

For assay [2], the target named is T2, LC3B (Homo sapiens, UniProt Q9GZQ8).
T2 construct: His8 (N, cleaved yes); GST (from pGEX-6P1) (N, cleaved yes); made in house; host or cells: E. coli BL21(DE3)pLsyS
The experiment in a line: MST affinity with LC3B. The class given is binding. The conditions noted are these: MST, LC3B, protein 500 nM; read-out: Kd.

A further assay deals with Q72-GFP. The experiment in a line: OI-RD affinity reaction parameters with Q72-GFP. The class given is binding. From the text: (§1) (1) PolyQ-GFP cDNA sequence (expressing Met-polyQ-GFP, wherein polyQ was Q72 or Q25) was synthesized de novo and subcloned into pcDNA vector. […] And the same method was used to obtain cells expressing Q53-GFP, cells expressing Q46-GFP, and cells expressing Q38-GFP.

Assay [3] concerns the target T3, binding between HTTexon1-Q72-MBP and LC3B (Homo sapiens, UniProt P42858+Q9GZQ8, INS38QQQQQQQQQQQQQQQQQQQQQQQQQQQQQQQQQQQQQQQQQQQQQQQQQQQ).
T3 construct: His8 (N, cleaved yes); GST (from pGEX-6P1) (N, cleaved yes); made in house; LC3B: E. coli BL21(DE3)pLsyS
The experiment in a line: In vitro pull-down HTTexon1-Q72-MBP and LC3B. Type of assay: biochemical. The conditions noted are these: 1 μM compound 1 or 100 nM compound 4. How it is done: Incubation was conducted. Then the unbound proteins were removed.
(3) The resin-bound proteins were eluted and analyzed by SDS-PAGE and Western-blots with anti-LC3 antibody (FIG. 22a).

The next assay addresses MBP-ATXN3-Q68 (Homo sapiens, UniProt P54252, INS305QQQQQQQQQQQQQQQQQQQQQQQQQQQQQQQQQQQQQQQQQQQQQQQQQQQQQQQQQQ). The experiment in a line: OI-RD affinity screening with MBP-ATXN3-Q68. Type of assay: binding. Set-up: His8 with TEV protease cleavage site; made in house; host or cells: Escherichia coli Rosetta(DE3)pLsyS. The settings on record: OI-RD difference images. As to the method: (§2) Screening was conducted using a method similar to 1.1, except for that the target protein HTTexon1-Q72-MBP in step (1) of 1.1 was replaced with MBP-ATXN3-Q68 and the target protein HTTexon1-Q25-MBP in step (2) of 1.1 was replaced with MBP-ATXN3-Q28, to obtain compounds that can selectively bind to ATXN3 with abnormally expanded polyQ (MBP-ATXN3-Q68).

Assay [4] has as its target T2, LC3B. The experiment in a line: OI-RD affinity with LC3B. The class given is binding. As to the method:
01-RD images before and after incubation with the target protein was obtained following the method in (1).
The difference images of the above steps (1), (2), (3) (the image after incubation minus the image before incubation) was analyzed respectively.
Each compound was printed in triplicates on the microarray. 01-RD was used to measure the affinity reaction parameters of the compound with LC3B, full-length mHTT (flHTT-Q73) and full-length HTT-Q23 (flHTT-Q23).

For a further assay, the system named is GFP. The experiment in a line: OI-RD affinity screening with GFP. Type of assay: binding. The settings on record: OI-RD difference images. How it is done:
To identify compound(s) that can selectively bind to proteins containing expanded polyglutamine, screening was conducted using a method similar to 1.1, except for that the target protein HTTexon1-Q72-MBP in step (1) of 1.1 was replaced with the polyQ-GFP protein prepared in 10.1, and the target protein HTTexon1-Q25-MBP in step (2) of 1.1 was replaced with GFP.

The subject of assay [5] is mHTT. The experiment in a line: Western-blot mHTT level in primary cultured cortical neurons. Type of assay: cell-based, mouse. The conditions noted are these: 2 days. As to the method:
(§3) Primary cultured cortical neurons: The brains of Hdh^Q140/Q7 and Hdh^Q7/Q7 newborn mice (P0) were dissected, digested, dissociated, and cultured.
(§4) (1) The primary cultured Hdh^Q140/Q7 and Hdh^Q7/Q7 mouse cortical neuron cells were treated with the compound for 2 days.

For assay [6], the system named is mHTT. The experiment in a line: Intracerebroventricular injection, mHTT and wtHTT in cortices of HD mice. The class given is in vivo, mouse. How it is done:
Experimental animals: Hdh^Q140/Q7 mice (3 months old), 4 in each group.
Each test includes three repetitions for each sample, and the mean values was calculated (FIG. 16).

The subject of assay [7] is polyQ-GFP (Q72-GFP, Q25-GFP). The experiment in a line: polyQ-GFP level in HEK293T cells by Incucyte fluorescence counting. The conditions noted are these: Q72-GFP vs Q25-GFP expressing HEK293T cells, 100 nM compound 1, 100 nM compound 3 or 50 nM compound 4, 2 days. Type of assay: cell-based. From the text: (1) PolyQ-GFP cDNA sequence (expressing Met-polyQ-GFP, wherein polyQ was Q72 or Q25) was synthesized de novo and subcloned into pcDNA vector. It was transfected into HEK293T cells (ATCC, CRL-3216) through forward transfection to obtain Q72-GFP expressing cells and Q25-GFP expressing cells, respectively. And the same method was used to obtain cells expressing Q53-GFP, cells expressing Q46-GFP, and cells expressing Q38-GFP.
The Q72-GFP expressing cells and Q25-GFP expressing cells obtained in step (1) of 10.1 were used. […] Then the level of polyQ-GFP was measured by Incucyte fluorescence counting (FIG. 25).

For another assay, the target named is T4, MBP-ATXN3-Q28 (Homo sapiens, UniProt P54252, INS305QQQQQQQQQQQQQQQQQQ).
T4 construct: His8 with TEV protease cleavage site; made in house; host or cells: Escherichia coli Rosetta(DE3)pLsyS
T4 sequence (P54252 with tags, fused parts or gaps isoform P54252-4 with the stated changes): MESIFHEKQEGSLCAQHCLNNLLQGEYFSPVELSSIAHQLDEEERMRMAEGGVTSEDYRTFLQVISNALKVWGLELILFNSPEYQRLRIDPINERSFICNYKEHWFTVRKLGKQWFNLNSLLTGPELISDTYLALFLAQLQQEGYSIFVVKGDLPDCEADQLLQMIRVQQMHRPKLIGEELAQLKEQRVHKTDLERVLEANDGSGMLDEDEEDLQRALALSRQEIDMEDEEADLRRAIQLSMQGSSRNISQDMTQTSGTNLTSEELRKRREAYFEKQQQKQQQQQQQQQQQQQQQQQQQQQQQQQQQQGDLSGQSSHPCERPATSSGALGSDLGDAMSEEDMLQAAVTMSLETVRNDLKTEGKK
The experiment in a line: OI-RD affinity screening with MBP-ATXN3-Q28. The conditions noted are these: OI-RD difference images. Type of assay: binding. As to the method: as §2

The next assay addresses T5, wtHTT (Mus musculus, UniProt P42859).
T5 construct: endogenous in cells; host or cells: primary cortical neurons of newborn Hdh Q140/Q7 and Hdh Q7/Q7 mice
The experiment in a line: Western-blot wtHTT level in primary cultured cortical neurons. The settings on record: Hdh^Q7/Q7 cortical neurons, 2 days. Type of assay: cell-based. As to the method: as §3, §4

The target in a further assay is Q46-GFP. The experiment in a line: OI-RD affinity reaction parameters with Q46-GFP. The class given is binding.
From the text: as §1

T3 sequence (P42858 other isoform, or with tags, fused parts or gaps with the stated changes): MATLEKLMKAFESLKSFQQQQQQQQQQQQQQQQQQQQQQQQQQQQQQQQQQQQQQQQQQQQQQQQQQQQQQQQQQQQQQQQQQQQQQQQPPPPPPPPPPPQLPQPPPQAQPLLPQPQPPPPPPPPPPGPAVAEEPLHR
T5 sequence (P42859 whole entry): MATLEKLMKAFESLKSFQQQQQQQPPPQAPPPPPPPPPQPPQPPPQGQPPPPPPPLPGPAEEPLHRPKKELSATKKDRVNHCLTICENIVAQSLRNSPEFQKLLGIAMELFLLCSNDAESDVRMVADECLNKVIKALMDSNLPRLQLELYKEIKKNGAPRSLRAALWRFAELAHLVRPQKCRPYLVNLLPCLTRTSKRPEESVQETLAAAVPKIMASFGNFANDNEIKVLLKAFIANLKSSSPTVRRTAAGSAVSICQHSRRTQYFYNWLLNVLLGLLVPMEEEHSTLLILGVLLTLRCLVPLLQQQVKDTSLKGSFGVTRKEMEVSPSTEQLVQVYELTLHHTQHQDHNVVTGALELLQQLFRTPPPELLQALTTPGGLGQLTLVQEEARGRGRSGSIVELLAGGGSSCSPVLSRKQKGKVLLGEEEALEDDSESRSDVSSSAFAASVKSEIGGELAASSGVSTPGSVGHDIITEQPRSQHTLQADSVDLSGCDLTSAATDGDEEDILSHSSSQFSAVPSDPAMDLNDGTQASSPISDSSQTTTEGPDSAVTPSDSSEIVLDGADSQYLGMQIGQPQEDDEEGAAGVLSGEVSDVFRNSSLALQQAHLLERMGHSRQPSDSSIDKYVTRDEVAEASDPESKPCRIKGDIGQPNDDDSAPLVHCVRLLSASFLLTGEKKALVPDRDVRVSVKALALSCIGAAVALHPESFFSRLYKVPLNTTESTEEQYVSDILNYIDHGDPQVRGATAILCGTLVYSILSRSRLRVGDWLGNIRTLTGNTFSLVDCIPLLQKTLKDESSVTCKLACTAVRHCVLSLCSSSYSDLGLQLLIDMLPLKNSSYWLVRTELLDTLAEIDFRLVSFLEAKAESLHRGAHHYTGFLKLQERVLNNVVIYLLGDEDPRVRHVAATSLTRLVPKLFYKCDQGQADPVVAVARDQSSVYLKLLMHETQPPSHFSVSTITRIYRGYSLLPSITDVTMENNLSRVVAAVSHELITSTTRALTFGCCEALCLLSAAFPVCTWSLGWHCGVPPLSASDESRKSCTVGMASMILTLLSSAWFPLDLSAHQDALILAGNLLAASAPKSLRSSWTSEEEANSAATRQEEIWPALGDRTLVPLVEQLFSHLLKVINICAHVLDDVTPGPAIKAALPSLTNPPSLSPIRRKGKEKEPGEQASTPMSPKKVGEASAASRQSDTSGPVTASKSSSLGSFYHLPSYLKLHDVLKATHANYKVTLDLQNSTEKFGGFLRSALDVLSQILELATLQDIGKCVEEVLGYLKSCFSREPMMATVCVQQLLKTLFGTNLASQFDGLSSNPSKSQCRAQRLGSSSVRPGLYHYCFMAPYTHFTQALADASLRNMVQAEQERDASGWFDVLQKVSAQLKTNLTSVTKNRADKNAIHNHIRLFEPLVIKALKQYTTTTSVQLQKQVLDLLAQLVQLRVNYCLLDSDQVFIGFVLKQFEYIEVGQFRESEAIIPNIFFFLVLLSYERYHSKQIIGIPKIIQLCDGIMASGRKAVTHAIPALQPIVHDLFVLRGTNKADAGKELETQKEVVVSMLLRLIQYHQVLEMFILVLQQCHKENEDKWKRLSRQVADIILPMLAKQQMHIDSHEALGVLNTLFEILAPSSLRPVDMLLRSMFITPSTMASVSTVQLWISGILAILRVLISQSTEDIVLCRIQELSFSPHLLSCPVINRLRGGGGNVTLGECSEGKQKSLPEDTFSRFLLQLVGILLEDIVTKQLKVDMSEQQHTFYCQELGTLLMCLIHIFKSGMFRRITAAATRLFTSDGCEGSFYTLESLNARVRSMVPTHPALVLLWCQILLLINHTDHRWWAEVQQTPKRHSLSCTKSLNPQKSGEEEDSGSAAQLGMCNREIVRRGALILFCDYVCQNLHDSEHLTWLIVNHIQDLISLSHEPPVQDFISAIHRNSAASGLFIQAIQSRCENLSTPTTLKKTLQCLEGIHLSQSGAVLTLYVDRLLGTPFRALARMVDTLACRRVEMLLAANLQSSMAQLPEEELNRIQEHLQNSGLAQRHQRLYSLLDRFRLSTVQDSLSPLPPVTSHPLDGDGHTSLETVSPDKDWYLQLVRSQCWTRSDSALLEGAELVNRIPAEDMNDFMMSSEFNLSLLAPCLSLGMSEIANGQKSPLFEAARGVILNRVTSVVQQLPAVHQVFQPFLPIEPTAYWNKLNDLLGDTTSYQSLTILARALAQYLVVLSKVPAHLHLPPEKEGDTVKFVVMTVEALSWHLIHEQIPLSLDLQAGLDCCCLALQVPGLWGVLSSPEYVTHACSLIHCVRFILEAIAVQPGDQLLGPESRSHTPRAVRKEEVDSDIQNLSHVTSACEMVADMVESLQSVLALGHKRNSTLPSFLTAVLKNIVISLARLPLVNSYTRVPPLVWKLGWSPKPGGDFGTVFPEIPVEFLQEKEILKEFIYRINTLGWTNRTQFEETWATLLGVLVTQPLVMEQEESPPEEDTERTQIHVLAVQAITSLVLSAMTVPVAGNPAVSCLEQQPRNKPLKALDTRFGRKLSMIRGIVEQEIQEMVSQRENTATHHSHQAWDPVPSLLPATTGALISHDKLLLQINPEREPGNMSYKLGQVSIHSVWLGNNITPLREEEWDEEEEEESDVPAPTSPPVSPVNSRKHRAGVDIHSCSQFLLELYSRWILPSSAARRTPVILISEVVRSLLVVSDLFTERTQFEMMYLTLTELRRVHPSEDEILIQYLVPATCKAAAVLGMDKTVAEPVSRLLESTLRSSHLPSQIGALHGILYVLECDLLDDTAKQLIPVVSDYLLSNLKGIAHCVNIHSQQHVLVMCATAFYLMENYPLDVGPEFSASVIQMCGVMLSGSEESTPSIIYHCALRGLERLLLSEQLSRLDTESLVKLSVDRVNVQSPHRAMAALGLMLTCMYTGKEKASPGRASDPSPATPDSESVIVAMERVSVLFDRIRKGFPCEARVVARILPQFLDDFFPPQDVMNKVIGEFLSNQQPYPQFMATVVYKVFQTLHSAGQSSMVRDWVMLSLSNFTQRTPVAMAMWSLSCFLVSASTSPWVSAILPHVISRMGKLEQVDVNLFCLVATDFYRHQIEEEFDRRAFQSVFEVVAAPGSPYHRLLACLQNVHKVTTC
Sequence of MBP-ATXN3-Q68 (P54252 with tags, fused parts or gaps isoform P54252-4 with the stated changes): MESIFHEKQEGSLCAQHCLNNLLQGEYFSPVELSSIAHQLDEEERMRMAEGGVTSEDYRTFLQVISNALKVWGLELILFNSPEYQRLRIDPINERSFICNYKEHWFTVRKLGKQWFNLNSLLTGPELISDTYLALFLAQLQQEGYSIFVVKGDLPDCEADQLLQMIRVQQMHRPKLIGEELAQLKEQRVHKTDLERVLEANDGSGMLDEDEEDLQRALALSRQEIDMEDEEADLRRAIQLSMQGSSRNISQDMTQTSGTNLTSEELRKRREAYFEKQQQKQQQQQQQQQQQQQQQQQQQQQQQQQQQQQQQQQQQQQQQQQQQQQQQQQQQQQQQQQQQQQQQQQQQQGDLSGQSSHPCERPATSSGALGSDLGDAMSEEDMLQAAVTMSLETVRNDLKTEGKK
T1 sequence (P54253 with tags, fused parts or gaps with the stated changes): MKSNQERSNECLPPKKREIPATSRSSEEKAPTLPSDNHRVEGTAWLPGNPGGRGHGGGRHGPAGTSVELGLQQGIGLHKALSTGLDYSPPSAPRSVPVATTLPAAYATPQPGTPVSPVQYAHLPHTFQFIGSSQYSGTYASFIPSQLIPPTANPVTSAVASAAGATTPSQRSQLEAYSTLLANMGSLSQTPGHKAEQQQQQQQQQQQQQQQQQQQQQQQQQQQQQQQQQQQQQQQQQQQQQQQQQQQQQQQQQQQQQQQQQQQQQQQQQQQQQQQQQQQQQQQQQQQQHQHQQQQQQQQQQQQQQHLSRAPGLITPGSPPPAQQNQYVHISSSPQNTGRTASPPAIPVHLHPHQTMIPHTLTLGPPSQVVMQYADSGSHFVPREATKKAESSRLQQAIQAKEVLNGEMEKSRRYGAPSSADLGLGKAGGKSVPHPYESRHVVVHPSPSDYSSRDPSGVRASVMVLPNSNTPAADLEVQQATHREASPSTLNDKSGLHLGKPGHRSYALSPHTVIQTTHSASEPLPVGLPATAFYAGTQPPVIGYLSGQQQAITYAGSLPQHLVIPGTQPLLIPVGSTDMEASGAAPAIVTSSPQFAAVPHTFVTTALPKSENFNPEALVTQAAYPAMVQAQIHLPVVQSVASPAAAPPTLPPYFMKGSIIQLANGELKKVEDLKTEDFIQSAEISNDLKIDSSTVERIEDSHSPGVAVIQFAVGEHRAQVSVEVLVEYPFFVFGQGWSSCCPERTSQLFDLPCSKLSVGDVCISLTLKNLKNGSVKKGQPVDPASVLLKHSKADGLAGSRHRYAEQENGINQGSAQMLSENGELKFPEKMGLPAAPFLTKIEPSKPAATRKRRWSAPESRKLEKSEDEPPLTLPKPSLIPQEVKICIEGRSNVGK

With `O=C1Nc2ccc(I)cc2/C1=C/c1cc(Br)c(O)c(Br)c1` [compound 1, GW5074], the “level of mutant ATXN1 protein (His-ATXN1-Q92)” value in [1] is on record as “Decreased levels of mutant ATXN1 were observed”. For the same compound, the Kd (as a rule, the concentration at which binding is half-saturated) on LC3B [2] came to 4760 nM; at Q72-GFP, 180 nM; at LC3B [4] (OI-RD, LC3B, read-out: Kd), 468 nM; on Q46-GFP it was 60.2 nM. Moreover, the Koff with Q72-GFP was determined as 0.000252 s⁻¹; on LC3B [4] (OI-RD, LC3B), 0.00029 s⁻¹; in the assay on Q46-GFP, 0.000305 s⁻¹. Moreover, the Kon with Q72-GFP was determined as 8.37e-05 min/nM; at LC3B [4] (OI-RD, LC3B), 3.72e-05 min/nM; in the assay on Q46-GFP it was 0.000304 min/nM. Besides, in [3], the “binding between HTTexon1-Q72-MBP and LC3B” value is given as “could enhance the binding”. In addition, the “binding to MBP-ATXN3-Q68” value on MBP-ATXN3-Q68 was “binded”. For the same compound, the “binding to LC3B” value at LC3B [4] (OI-RD difference images) is listed as “can bind”. The “binding to GFP” value in the assay on GFP is “did not bind”. Further, in the assay on mHTT [5], the “concentration range in which the effect of selectively reducing mHTT levels was observed” value is 30 to 300 nM. For the same compound, the “preferred concentration for selectively reducing mHTT levels” value with mHTT [5] turned out to be 100 nM. Also, in the assay on mHTT [6] (Hdh^Q140/Q7 mice, icv, 10 days), the “mHTT selectivity relative to wtHTT” value is on record as “showed mHTT selectivity relative to wtHTT”. Besides, in the assay with mHTT [6] (mouse, in vivo), the “mHTT level in cortices” value is recorded as “significantly reduced mHTT level”. For the same compound, the “level of proteins containing expanded polyglutamine in cells (polyQ-GFP)” value in assay [7] is reported as “can selectively reduce the level”. Besides, the “binding to MBP-ATXN3-Q28” value on MBP-ATXN3-Q28 is given as “did not bind”. Besides, the wtHTT levels result at wtHTT is “did not reduce wtHTT levels”.
